In patent publication US20230263944A1, “DUAL FUNCTION SURFACE FOR CELL CAPTURE AND SPREADING” (THE ROYAL INSTITUTION FOR THE ADVANCEMENT OF …, priority 2020, published 2023):

Tests used:
[1] = test system: endothelial colony forming cells (ECFCs); test: ECFC seeding on modified polystyrene surfaces under static conditions; format: cell-based, human; conditions: vs unmodified aminated polystyrene surfaces
Text: Cells were stained for F-actin (red) and DAPI (blue). Images were used to quantify cell number and surface area per cell. Unmodified=aminated polystyrene surfaces without further modifications. **p<0.01, *p<0.05 with N=3 experimental replicas.
To test whether the bifunctional surfaces can impart two significant effects on cells of interests, ECFCs derived from human peripheral blood were either seeded on the modified surfaces under static conditions or flown over the surfaces in a perfusion loop under 1 dyn/cm^2 wall shear stress. […] The two molecules were mixed together at the center point concentrations of the previously described surface model.

[2] = ELISA on L605 CoCr substrates modified with peptides and antibodies; conditions: dark, ambient conditions, covalent peptide grafting vs adsorption
Description: (A) Without S-SMPB, peptides adsorb onto L605 which can change antibody orientation on surfaces. (B) 12-well plate with CoCr samples at the end of the ELISA. For custom ELISAs, RGD-TAMRA was detected using anti Rhodamine followed by HRP-labelled secondary antibodies. Anti CD309 was detected using an HRP-labelled F(ab′)2 secondary antibody on a separate set of samples. HRP activity was quantified by measuring A450 of supernatant collected after 30 min incubation with TMB substrate+addition of stop solution. […] N=3 L605 samples except G-I (N=9 images).

ECFCs = test: Surface endothelialization of functionalized CoCr vascular stents in a perfusion model; format: cell-based, human; conditions: flow
Text: (A) Representative fluorescence images of ECFCs on the surface of modified stents (after plasma amination) and an unmodified control after 2 and half hours of circulating ECFCs over the stents in a perfusion model at 1 dyn/cm^2 wall shear stress. ECFCs were stained for F-actin (red) and nuclei (blue). Phase contrast images show the corresponding stent structure. Flow direction was from right to left. (B) Quantification of cell adhesion parameters from the fluorescence images. *P<0.05 and **P<0.01 with N=3 experimental replicas from different ECFC donors.
As encompassed herein, the modifications can be applied to different aminated substrates—as shown on polystyrene (FIGS. 4-13) and on cobalt-chromium (CoCr) (FIGS. 16-18). The modifications can be applied to different geometries while retaining the benefits observed on flat substrates.

HUVEC cells = test: HUVEC seeding on Protein G / anti-CD144 / RGD-TAMRA polystyrene well plate; format: cell-based, human; conditions: 3 h shaker incubation; for HUVEC attachment to the surface: serum free medium
Description: A 6 well plate was seeded with the following conditions in each well (W1-W6):
The functionalized surface was rinsed with phosphate buffer saline (PBS) and […]. HUVEC cells were used and were seeded in each well in serum free medium at a concentration of 19,000 cells/mL. The plate was incubated for 3 hours on an incubation shaker then imaged under the microscope. The plate were left to incubate for another 21 h (total 24 h) at 37° C. 5% CO2 and imaged again.

[3] = ELISA of functionalized CoCr surfaces after gamma-irradiation; format: physicochemical; conditions: two one-side t-test, 15% difference considered practically equivalent
Text: (A) Principle of the ELISA method used to detect immobilized antibodies via horseradish peroxidase (HRP) conjugated secondary antibodies. (B) ELISA method used to detect immobilized RGD-TAMRA peptides via primary anti rhodamine antibodies followed by HRP conjugated secondary antibodies.

With CGK(PEG3-TAMRA)GGRGDS-NH2 [RGD-TAMRA] the “surface area of the ECFCs (cell spreading)” value [1] was “significantly higher than the controls”, the “surface area of the ECFCs (cell spreading)” value ([1]; listed as RGD peptides) was “increase cell spreading” and the “ELISA signal after 28d storage” value [2] was “significantly higher”. The “cell spreading on CoCr stents” value (ECFCs) was “higher cell spreading”, the “HUVEC attachment to the surface” value (HUVEC cells) was “strongly attach” and the “ELISA signal after gamma-irradiation” value [3] was “practically equivalent”.

For collagen, the HUVEC spreading (HUVEC cells) was “spread more” and the “HUVEC attachment to the surface” value (HUVEC cells) was “strongly attach”.
